Among the test systems are LOX IMVI melanoma; HL-60(TB) leukemia; UACC-257 melanoma; HCC-2998 colon; BT-549 breast; SN12C renal; U251 CNS; SF-539 CNS; CAKI-1 renal.
What all share (assay): growth of human tumour cells (NCI), 48 h

The values below come from PubChem BioAssay (NCI).

“And” between values parts separate entries of the source, which are not always exact repeats. Identical values can stand only once.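 Cells were grown in 96-well plates and exposed to each compound for 48 hours at five concentrations; endpoints were interpolated linearly between bracketing concentrations, or set to the highest concentration if not reached. Here, GI50 denotes the concentration required for 50% inhibition of growth. The concentration for full growth arrest is given as TGI.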 Where a SMILES comes first, the peptide text is derived from it. [ ]: non-standard residue; d: D form. The star is where a group is joined. Bn2Val = CC(C)[C@@H](C(=O)*)N(Cc1ccccc1)Cc1ccccc1; NMeV = CN[C@H](C(=O)O)C(C)C; X29 = COc1ccc(CN*)c(OC)c1; dNMeA = CN[C@H](C)C(=O)O Bounds are passed on as bounds.

Turning to `O=C1CC(C(CC(=O)c2ccccc2)c2ccccc2)C(=O)c2ccccc2N1` (stereo unspecified), the TGI in the assay on LOX IMVI melanoma, in the assay with HL-60(TB) leukemia, in the assay on UACC-257 melanoma, in the assay on HCC-2998 colon, in the assay on BT-549 breast and in the assay with SN12C renal was more than 100 µM each time. The TGI in the assay with U251 CNS and in the assay on SF-539 CNS was more than 100 µM in each case.
Regarding `Cn1c([C@H](C#N)C(=O)c2cc(O)ccc2[N+](=O)[O-])nc2ccccc21`, the TGI with LOX IMVI melanoma, with HL-60(TB) leukemia, with UACC-257 melanoma, in the assay on HCC-2998 colon, in the assay on BT-549 breast and in the assay on CAKI-1 renal was more than 100 µM in each case. The TGI in the assay on SN12C renal, in the assay with U251 CNS and in the assay with SF-539 CNS was more than 100 µM each time.
For `Cc1nnc2n(c1=O)CCN2C`, the TGI in the assay on LOX IMVI melanoma, with HL-60(TB) leukemia, in the assay with HCC-2998 colon, with BT-549 breast, with SN12C renal and in the assay with U251 CNS was more than 100 µM in each case. In the assay on SF-539 CNS, the TGI is more than 100 µM.
With `C=C1[C@@](C)([C@@H]2CCCS2)[C@H]2C(C)=C[C@]1(C)n1c(=O)n(-c3ccccc3)c(=O)n12`, the TGI with HL-60(TB) leukemia, in the assay with UACC-257 melanoma, in the assay on HCC-2998 colon, in the assay on BT-549 breast, with CAKI-1 renal and in the assay on SN12C renal was more than 100 µM throughout. In addition, the TGI in the assay on U251 CNS and in the assay with SF-539 CNS was more than 100 µM in each case.
In the case of `CC(=O)OC12c3ccccc3C(c3ccccc31)C1C(=O)N(c3ccccn3)C(=O)C12` (stereo unspecified), the TGI in the assay with LOX IMVI melanoma, in the assay on HL-60(TB) leukemia, in the assay with UACC-257 melanoma, with HCC-2998 colon, in the assay with BT-549 breast and in the assay on CAKI-1 renal was more than 100 µM throughout. Further, the TGI with SN12C renal, in the assay on U251 CNS and in the assay with SF-539 CNS was more than 100 µM throughout.
`CCOC(=O)NNC(=O)NCc1ccccc1CNC(=O)NNC(=O)OCC`: the TGI in the assay on LOX IMVI melanoma, in the assay with HL-60(TB) leukemia, with UACC-257 melanoma, in the assay on HCC-2998 colon, in the assay on BT-549 breast and in the assay with CAKI-1 renal was more than 100 µM throughout. The TGI in the assay with SN12C renal, in the assay on U251 CNS and in the assay on SF-539 CNS was more than 100 µM in each case.
With `CCOC(=O)C(NC(=O)CC)(Nc1ccc(S(=O)(=O)Nc2onc(C)c2C)cc1)C(F)(F)F` (stereo unspecified), the TGI with LOX IMVI melanoma, in the assay with HL-60(TB) leukemia, in the assay on UACC-257 melanoma, with HCC-2998 colon, in the assay with BT-549 breast and in the assay on CAKI-1 renal was more than 100 µM each time. The TGI in the assay on SN12C renal, in the assay on U251 CNS and in the assay with SF-539 CNS was more than 100 µM throughout.
On to `Cc1nc2n(c1/C=C1/C(=O)Nc3ccccc31)CCS2`, for which the TGI with LOX IMVI melanoma is more than 100 µM; with HL-60(TB) leukemia it was more than 100 µM; in the assay with UACC-257 melanoma it was more than 100 µM; in the assay with HCC-2998 colon it was 61.9 µM; in the assay on BT-549 breast it was more than 100 µM; with CAKI-1 renal, more than 100 µM. For the same compound, the TGI in the assay with SN12C renal, with U251 CNS and with SF-539 CNS was more than 100 µM each time.
Consider `CC(=O)OC1C2CCC3C(C)(O)C4CC(O)C(C)(C)C4(O)C(O)CC13CC2(C)O` (stereo unspecified), for which the TGI in the assay with LOX IMVI melanoma, in the assay with HL-60(TB) leukemia, with UACC-257 melanoma, in the assay with HCC-2998 colon, in the assay with BT-549 breast and with CAKI-1 renal was more than 100 µM throughout. For the same compound, the TGI in the assay with SN12C renal and with SF-539 CNS was more than 100 µM each time.
In the case of `Nc1cccc(S(=O)(=O)Nc2nnc(S(N)(=O)=O)s2)c1`, the TGI with LOX IMVI melanoma, with HL-60(TB) leukemia, in the assay with HCC-2998 colon, with BT-549 breast, in the assay on CAKI-1 renal and in the assay on U251 CNS was more than 100 µM each time. For the same compound, the TGI in the assay with SF-539 CNS was more than 100 µM.
`CS(=O)(=O)c1nc(-c2cc3c(c(S(C)(=O)=O)n2)CCC3)cc2c1CCCC2`: the TGI in the assay with LOX IMVI melanoma is 49.8 µM; with HL-60(TB) leukemia, more than 100 µM; in the assay with UACC-257 melanoma, more than 100 µM; in the assay on HCC-2998 colon, more than 100 µM; in the assay on BT-549 breast, 83.8 µM; in the assay on CAKI-1 renal, 38 µM. Also, the TGI in the assay on SN12C renal, in the assay with U251 CNS and in the assay on SF-539 CNS was more than 100 µM in each case.
Regarding `CO[C@H]1O[C@@H]2CO[C@@H](c3ccccc3)O[C@H]2[C@@H]2C/C=C\CCC[C@@]12O`, the TGI with LOX IMVI melanoma is 32.4 µM; in the assay with HL-60(TB) leukemia, 51.2 µM; in the assay on UACC-257 melanoma, 43.2 µM; with HCC-2998 colon, 26.4 µM; in the assay on BT-549 breast, 43.8 µM; with CAKI-1 renal it was more than 100 µM. In addition, the TGI in the assay with SN12C renal worked out at 32.5 µM; with U251 CNS, 40.2 µM.
Turning to `COc1ccc(CNC(=O)[C@@H]2CCCN2C(=O)[C@@H](C)N(C)C(=O)[C@H](C(C)C)N(C)C(=O)[C@@H](NC(=O)[C@H](C(C)C)N(Cc2ccccc2)Cc2ccccc2)C(C)C)c(OC)c1` (Bn2Val-V[NMeV][dNMeA]P-X29), the TGI stood at 7.13 µM in the assay with LOX IMVI melanoma; 2.8 µM with HL-60(TB) leukemia; 11.9 µM with UACC-257 melanoma; 8.39 µM in the assay on HCC-2998 colon; 7.72 µM with BT-549 breast; 15.5 µM in the assay on CAKI-1 renal. Further, the TGI in the assay with SN12C renal stood at 3.25 µM; in the assay with U251 CNS, 5.21 µM; with SF-539 CNS, 4.69 µM.
Consider `CCOc1ccc(N=NC2C(=O)N(C(=O)CC(=O)Nc3ccccc3)N=C2C)cc1` (stereo unspecified), for which the TGI in the assay with LOX IMVI melanoma, with HL-60(TB) leukemia, in the assay on UACC-257 melanoma, in the assay on HCC-2998 colon, in the assay with BT-549 breast and in the assay on CAKI-1 renal was more than 100 µM in each case. The TGI in the assay with SN12C renal, with U251 CNS and in the assay with SF-539 CNS was more than 100 µM each time.
Consider `O=C(O)CC[P+](c1ccccc1)(c1ccccc1)c1ccccc1`, for which the TGI with LOX IMVI melanoma is more than 100 µM; with HL-60(TB) leukemia, 80.8 µM; with UACC-257 melanoma it was more than 100 µM; in the assay with HCC-2998 colon, more than 100 µM; with BT-549 breast, 81.8 µM; in the assay on CAKI-1 renal, more than 100 µM. In addition, the TGI is 54.7 µM in the assay on SN12C renal and more than 100 µM in the assay with U251 CNS.
In the case of `CC(C)=CCOc1cc(NC(=S)c2ccsc2C)ccc1Cl`, the TGI is more than 100 µM in the assay on LOX IMVI melanoma; more than 100 µM in the assay on HL-60(TB) leukemia; more than 100 µM with UACC-257 melanoma; 88 µM with HCC-2998 colon; more than 100 µM with BT-549 breast; more than 100 µM in the assay on CAKI-1 renal. Further, the TGI in the assay with SN12C renal, with U251 CNS and with SF-539 CNS was more than 100 µM throughout.
For the compound `CC(C)(O)C1CC[C@]2(C)[C@H]3CC[C@@H]4[C@@]5(C)CCCC(C)(C)[C@@H]5CC[C@@]4(C)[C@]3(C)CC[C@@H]12` (stereo partly specified), the TGI in the assay on LOX IMVI melanoma, with HL-60(TB) leukemia, in the assay with UACC-257 melanoma, with HCC-2998 colon, in the assay with BT-549 breast and with CAKI-1 renal was more than 100 µM each time. In addition, the TGI in the assay on SN12C renal, with U251 CNS and in the assay with SF-539 CNS was more than 100 µM each time.
As for `COCC1OC(S(=O)(=O)c2ccccc2)C(O)C(OC)C1OC` (stereo unspecified), the TGI with LOX IMVI melanoma, in the assay with HL-60(TB) leukemia, in the assay with UACC-257 melanoma, in the assay with HCC-2998 colon, in the assay on BT-549 breast and with CAKI-1 renal was more than 100 µM each time. For the same compound, the TGI in the assay on SN12C renal, in the assay on U251 CNS and with SF-539 CNS was more than 100 µM each time.
As to `O=S(=O)(O)c1cccc2cccc(N=Nc3c(O)ccc4ccccc34)c12`, the TGI in the assay on HL-60(TB) leukemia, with UACC-257 melanoma, in the assay with HCC-2998 colon, in the assay with BT-549 breast, with CAKI-1 renal and in the assay on SN12C renal was more than 100 µM in each case. For the same compound, the TGI in the assay with U251 CNS and in the assay with SF-539 CNS was more than 100 µM each time.
For the compound `COC(=O)C1=C(O)C(C(=O)OC)[C@]2(O)[C@@H](C(=O)OC)[C@H]1C[C@@H](c1ccccc1)[C@@H]2C(=O)OC` (stereo partly specified), the TGI in the assay with LOX IMVI melanoma was 39.3 µM; in the assay with HL-60(TB) leukemia it was more than 100 µM; with UACC-257 melanoma it was 25.8 µM; in the assay with HCC-2998 colon, 27.3 µM; in the assay with BT-549 breast it was 33.5 µM; in the assay with SN12C renal, 32.1 µM. In addition, the TGI in the assay on U251 CNS was found to be 30.7 µM; in the assay on SF-539 CNS, 25.5 µM.
With `O=C1CC(C(OCc2ccccc2)C(OCc2ccccc2)C(COCc2ccccc2)OCc2ccccc2)CC(=O)N1` (stereo unspecified), the TGI with LOX IMVI melanoma, with HL-60(TB) leukemia, with UACC-257 melanoma, in the assay with HCC-2998 colon, with BT-549 breast and with SN12C renal was more than 100 µM each time. The TGI in the assay on U251 CNS and in the assay with SF-539 CNS was more than 100 µM in each case. Besides, the GI50 in the assay with U251 CNS was > 100 µM and 40 µM.
Turning to `Oc1ccccc1C1C=C(c2ccccc2)NC(N2CCCCC2)=C1c1nc2ccccc2[nH]1` (stereo unspecified), the TGI with LOX IMVI melanoma turned out to be 31.2 µM; in the assay on HL-60(TB) leukemia, 43 µM; with UACC-257 melanoma it was 30.7 µM; in the assay with HCC-2998 colon, 10.8 µM; with BT-549 breast, 28.5 µM; in the assay on SN12C renal, 29.7 µM. Further, the values for the TGI in the assay with U251 CNS and in the assay on SF-539 CNS were 28.4 µM and 29.7 µM, respectively.
